Entries after “also recorded” stand apart in the source; their conditions may differ.
How the values were obtained:
Type in all cases: cell-based
[1] = tested on: HSV-2-infected HeLa S3 cells; experiment: Intracellular dThd phosphorylation; conditions: 25 μM, 9 h post infection, 1 h labeling
Experimental: Intracellular dThd kinase activity. HeLa S3 or HeLa BU cells (1.5×10^6 /ml) were mock infected or infected with HSV-1 or HSV-2at 3 PFU/cell and incubated at 37° C. for a 1 h adsorption period. The medium was then removed, and the cells were washed with growth medium and resuspended at a cell density of 5×10^5 cells/ml in RPMI 1640 medium supplemented with kanamycin (100 μg/ml) and 5% dialyzed fetal bovine serum. At 9 h post-HSV infection, [14C]dThd (0.16 μCi/ml; 1 μM dThd) and different amounts of 5'-Et-dThd were added to the medium depending on experimental conditions. At the end of the labeling period (1 h), the cells were pelleted by centrifugation, washed with phosphate-buffered-saline (PBS) and resuspended in a small volume of PBS. Aliquots were then pipetted directly onto DE81 discs which were immediately washed in 100% EtOH. The DE81 discs were washed two additional times in 100% EtOH, and then radioactivity associated with the discs was measured by scintillation counting in 5 ml of aqueous counting fluid. In this manner, total intracellular dThd kinase activity was determined from the sum of radioactive acid soluble dThd nucleotides plus the acid insoluble dTMP associated with DNA, both precipitated directly on the DE81 discs.

[2] = tested on: dNTP pools of HSV-1-infected HeLa BU cells; experiment: dNTP pool assay
From the text: (§1) dNTP pool assay. dNTP pool measurements were done as described by Williams, M. W., Chang, C. H. and Cheng, Y.-C. (J. Biomed. Biophys. Meth. 1:153-1 62 (1979)). 5'-Et-dThd alone had no effect on the dNTP pool assay.

[3] = tested on: dTTP pools of HSV-1 (strain MDK)-infected HeLa BU cells; experiment: dNTP pool assay; conditions: 100 μM
From the text: as §1

[4] = tested on: dTTP pool of HSV-1-infected HeLa S3 cells; experiment: dNTP pool assay; conditions: 100 μM, 12 h post infection
From the text: as §1

5'-ethynylthymidine [5'-Et-dThd]
dThd phosphorylating activity, % of untreated control [1]: 88%
effect on dTTP pool of HSV-infected mammalian cells ([2]; 100 μM): significantly decreases
reduction of dTTP pool vs untreated infected control ([2]; 100 μM, HSV-1-infected HeLa BU cells, 12 h post infection): 95%
effect on dATP, dCTP and dGTP pools ([2]; 9 h HSV-1 (KOS)-infected HeLa BU cells): not significantly affected; also recorded: no significant effect
inhibition of dTTP pools [3]: 45%
reduction of dTTP pool vs untreated infected control [4]: 80%
